Experimental data published in patent publication US20080306056A1, “PYRAZOLE-DERIVATIVES AS FACTOR Xa INHIBITORS” (SANOFI-AVENTIS DEUTSCHLAND GMBH, priority 2002, published 2008).

Molecular target: T1, human factor Xa (Homo sapiens, UniProt P00742)
T1 construct: 25 μl human factor Xa (Enzyme Research Laboratories, Inc; South Bend, Ind.); purchased Enzyme Research Laboratories, Inc; South Bend, Ind
Assay: Factor Xa assay (chromogenic, purified enzyme)
Type: biochemical
Conditions: inhibition constant for factor Xa; chromogenic substrate S-2765 140 μM, enzyme 0.5 nM, 25° C., pH 7.8; Ki=IC50/{1+(substrate concentration/Km)}; read-out: Ki(FXa)
Summary of the method: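 Human factor Xa (0.5 nM) pre-incubated 10 min with compound in TBS-PEG/DMSO, then S-2765 (140 μM) added; initial hydrolysis rate read at 405 nm, 25°C. IC50 by linear regression of relative rate vs log concentration; Ki = IC50/(1+[S]/Km).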

T1 sequence (P00742 235-488 limits assumed): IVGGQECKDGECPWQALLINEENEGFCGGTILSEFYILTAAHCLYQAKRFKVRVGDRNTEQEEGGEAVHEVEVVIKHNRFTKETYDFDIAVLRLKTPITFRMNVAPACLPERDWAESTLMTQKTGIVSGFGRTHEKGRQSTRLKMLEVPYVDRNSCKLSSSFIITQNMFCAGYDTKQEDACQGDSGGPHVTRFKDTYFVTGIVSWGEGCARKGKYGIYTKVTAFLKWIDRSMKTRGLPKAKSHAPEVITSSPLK
T1 sequence (P00742 41-179 partner limits assumed): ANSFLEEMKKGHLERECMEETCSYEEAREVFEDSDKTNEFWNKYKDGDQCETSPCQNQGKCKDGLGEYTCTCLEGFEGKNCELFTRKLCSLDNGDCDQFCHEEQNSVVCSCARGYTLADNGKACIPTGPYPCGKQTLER

Row | Ki [nM] | Structure (SMILES)
1 | 39 | CC(C)N1CCC(NC(=O)c2cc(C(=O)N3CCCOCC3)nn2CC(=O)Nc2ccc(Cl)cn2)CC1 [Example 108, 2-[(5-Chloro-pyridin-2-ylcarbamoyl)-methyl]-5-([1,4]oxazepane-4-carbonyl)-2H-pyrazole-3-carboxylic acid (1-isopropyl-piperidin-4-yl)-amide]
2 | 184 | CC(C)N1CCC(NC(=O)c2cc(C(=O)NS(C)(=O)=O)nn2Cc2cc(-c3ccc(Cl)s3)on2)CC1 [Example 82, 2-[5-(5-Chloro-thiophen-2-yl)-isoxazol-3-ylmethyl]-5-methanesulfonylaminocarbonyl-2H-pyrazole-3-carboxylic acid (1-isopropyl-piperidin-4-yl)-amide]
3 | 23 | CC(C)N1CCC(NC(=O)c2cc(C(=O)NCC(=O)O)nn2CC(=O)Nc2ccc(Cl)cn2)CC1 [Example 94, {[1-[(5-Chloro-pyridin-2-ylcarbamoyl)-methyl]-5-(1-isopropyl-piperidin-4-ylcarbamoyl)-1H-pyrazole-3-carbonyl]-amino}-acetic acid]
4 | 20 | CC(C)N1CCC(NC(=O)c2cc(C(=O)OCCO)nn2CC(=O)Nc2ccc(Cl)cn2)CC1 [Example 107, 1-[(5-Chloro-pyridin-2-ylcarbamoyl)-methyl]-5-(1-isopropyl-piperidin-4-ylcarbamoyl)-1H-pyrazole-3-carboxylic acid 2-hydroxy-ethyl ester]
5 | 104 | CC(C)N1CCC(NC(=O)c2cc(C(=O)N3CC(O)C3)nn2Cc2cc(-c3ccc(Cl)s3)on2)CC1 [Example 83, 2-[5-(5-Chloro-thiophen-2-yl)-isoxazol-3-ylmethyl]-5-(3-hydroxy-azetidine-1-carbonyl)-2H-pyrazole-3-carboxylic acid (1-isopropyl-piperidin-4-yl)-amide]
6 | 82 | CC(C)N1CCC(NC(=O)c2cc(C(=O)NCC(=O)O)nn2Cc2cc(-c3ccc(Cl)s3)on2)CC1 [Example 28, {[1-[5-(5-Chloro-thiophen-2-yl)-isoxazol-3-ylmethyl]-5-(1-isopropyl-piperidin-4-ylcarbamoyl)-1H-pyrazole-3-carbonyl]-amino}-acetic acid]
7 | 63 | CC(C)N1CCC(NC(=O)c2cc(C(=O)N3CCC3)nn2Cc2cc(-c3ccc(Cl)s3)on2)CC1 [Example 77, 5-(Azetidine-1-carbonyl)-2-[5-(5-chloro-thiophen-2-yl)-isoxazol-3-ylmethyl]-2H-pyrazole-3-carboxylic acid (1-isopropyl-piperidin-4-yl)-amide]
8 | 81 | CC(C)N1CCC(NC(=O)c2cc(C(=O)N3CCNC(=O)C3)nn2Cc2cc(-c3ccc(Cl)s3)on2)CC1 [Example 41, 2-[5-(5-Chloro-thiophen-2-yl)-isoxazol-3-ylmethyl]-5-(3-oxo-piperazine-1-carbonyl)-2H-pyrazole-3-carboxylic acid (1-isopropyl-piperidin-4-yl)-amide]
9 | 42 | CC(C)N1CCC(NC(=O)c2cc(-c3ccco3)n(Cc3cc(-c4ccc(Cl)s4)on3)n2)CC1 [Example 84, 1-[5-(5-Chloro-thiophen-2-yl)-isoxazol-3-ylmethyl]-5-furan-2-yl-1H-pyrazole-3-carboxylic acid (1-isopropyl-piperidin-4-yl)-amide]

The next lines start with the molecule.

Row | Structure (SMILES) | Ki [nM]
10 | CC(C)N1CCC(NC(=O)c2cc(C(=O)N3CCOCC3)nn2Cc2cc(-c3ccc(Cl)s3)on2)CC1 [Example 25, 2-[5-(5-Chloro-thiophen-2-yl)-isoxazol-3-ylmethyl]-5-(morpholine-4-carbonyl)-2H-pyrazole-3-carboxylic acid (1-isopropyl-piperidin-4-yl)-amide] | 95
11 | CC(C)N1CCC(NC(=O)c2cc(C(C)(C)C)nn2Cc2cc(-c3ccc(Cl)s3)on2)CC1 [Example 9, 5-tert-Butyl-2-[5-(5-chloro-thiophen-2-yl)-isoxazol-3-ylmethyl]-2H-pyrazole-3-carboxylic acid (1-isopropyl-piperidin-4-yl)-amide] | 332
12 | COC[C@H]1CC[C@H](COC)N1C(=O)c1cc(C(=O)NC2CCN(C(C)C)CC2)n(Cc2cc(-c3ccc(Cl)s3)on2)n1 [Example 67, 5-(2R,5R,2,5-Bis-methoxymethyl-pyrrolidine-1-carbonyl)-2-[5-(5-chloro-thiophen-2-yl)-isoxazol-3-ylmethyl]-2H-pyrazole-3-carboxylic acid (1-isopropyl-piperidin-4-yl)-amide] | 420
13 | COC(=O)c1cc(C(=O)NC2CCN(C(C)C)CC2)n(Cc2cc(-c3ccc(Cl)s3)on2)n1 [Example 20, 1-[5-(5-Chloro-thiophen-2-yl)-isoxazol-3-ylmethyl]-5-(1-isopropyl-piperidin-4-ylcarbamoyl)-1H-pyrazole-3-carboxylic acid methyl ester] | 73
14 | CC(C)N1CCC(NC(=O)c2cc(-c3cccs3)n(Cc3cc(-c4ccc(Cl)s4)on3)n2)CC1 [Example 2, 1-[5-(5-Chloro-thiophen-2-yl)-isoxazol-3-ylmethyl]-5-thiophen-2-yl-1H-pyrazole-3-carboxylic acid (1-isopropyl-piperidin-4-yl)-amide] | 32
15 | Cc1cc(C(=O)NC2CCN(C(C)C)CC2)n(Cc2cc(-c3ccc(Cl)s3)on2)n1 [Example 3, 2-[5-(5-Chloro-thiophen-2-yl)-isoxazol-3-ylmethyl]-5-methyl-2H-pyrazole-3-carboxylic acid (1-isopropyl-piperidin-4-yl)-amide] | 112
16 | CNC(=O)c1cc(C(=O)NC2CCN(C(C)C)CC2)n(Cc2cc(-c3ccc(Cl)s3)on2)n1 [Example 26, 1-[5-(5-Chloro-thiophen-2-yl)-isoxazol-3-ylmethyl]-1H-pyrazole-3,5-dicarboxylic acid 5-[(1-isopropyl-piperidin-4-yl)-amide] 3-methylamide] | 68
17 | CC(C)N1CCC(NC(=O)c2cc(C(=O)N3CCC[C@H]3CO)nn2Cc2cc(-c3ccc(Cl)s3)on2)CC1 [Example 64, 2-[5-(5-Chloro-thiophen-2-yl)-isoxazol-3-ylmethyl]-5-(2S,2-hydroxymethyl-pyrrolidine-1-carbonyl)-2H-pyrazole-3-carboxylic acid (1-isopropyl-piperidin-4-yl)-amide] | 90
18 | CC(C)N1CCC(NC(=O)c2c(C#N)c(-c3cccs3)nn2Cc2cc(-c3ccc(Cl)s3)on2)CC1 [Example 12, 2-[5-(5-Chloro-thiophen-2-yl)-isoxazol-3-ylmethyl]-4-cyano-5-thiophen-2-yl-2H-pyrazole-3-carboxylic acid (1-isopropyl-piperidin-4-yl)-amide] | 14
19 | CC(C)N1CCC(NC(=O)c2cc(C(=O)NC3CC3)nn2Cc2cc(-c3ccc(Cl)s3)on2)CC1 [Example 45, 1-[5-(5-Chloro-thiophen-2-yl)-isoxazol-3-ylmethyl]-1H-pyrazole-3,5-dicarboxylic acid 3-cyclopropylamide 5-[(1-isopropyl-piperidin-4-yl)-amide]] | 61
20 | CC(C)N1CCC(NC(=O)c2cc(C(=O)NC3CCS(=O)(=O)C3)nn2Cc2cc(-c3ccc(Cl)s3)on2)CC1 (stereo not drawn) [Example 75, 1-[5-(5-Chloro-thiophen-2-yl)-isoxazol-3-ylmethyl]-1H-pyrazole-3,5-dicarboxylic acid 3-[(1,1-dioxo-tetrahydro-1-thiophen-3-yl)-amide] 5-[(1-isopropyl-piperidin-4-yl)-amide]] | 76
21 | CC(C)N1CCC(NC(=O)c2c(-c3ccc(Cl)cc3Cl)cnn2Cc2cc(-c3ccc(Cl)s3)on2)CC1 [Example 7, 2-[5-(5-Chloro-thiophen-2-yl)-isoxazol-3-ylmethyl]-4-(2,4-dichloro-phenyl)-2H-pyrazole-3-carboxylic acid (1-isopropyl-piperidin-4-yl)-amide] | 293
